Consider two compounds from patent US6949679B1, “Polyamine transport inhibitors” (Universite Laval, priority 1998, dated 2005).

Where two headings read alike, the source gives them in different places.

One data set deals with polyamine transporter. Kind of data set: Inhibition of [3H]spermidine uptake in ZR-75-1 cells. In kind it is cell-based, human. The protocol: The rate of putrescine and spermidine transport was determined in ZR-75-1 cells incubated in serum-free RPMI 1640 medium as described (Lessard, M., Zhao, C., Singh, S. M. and Poulin, R. 1995. J. Biol. Chem. 270: 1685-1694), using [^3H]putrescine (30 Ci/mol) and [^3H]spermidine (20 Ci/mol), respectively as substrates for a 20 minute-assay period. Spermine uptake was similarly determined, using 1 μM [^14C]spermine (32 Ci/mol) as substrate. Uptake activity was expressed per amount of DNA as fluorometrically determined using 3,4-diaminobenzoic acid (Simard, J., Dauvois, S., Haagensen, D. E., Lėvesque, C., Mėrand, Y. and Labrie, F. 1990. Endocrinology, 126: 3223-3231). For the determination of spermidine uptake activity in CHO-K1 cells, 80% confluent cell monolayers were rinsed twice with PBS and incubated for 20 minutes at 37° C. in 400 μl of buffer A (20 mM Tris-HCl, pH 7.4; 0.42 mM CaCl2; 0.41 mM MgSO4; 103 mM NaCl; 5.7 mM KCl; 1.1 mM D-glucose) containing 5 μM [^3H]spermidine (20 Ci/mol). Cell cultures were then washed twice with 1 ml PBS containing 5.7 mM sym-norspermidine. Cells were then lysed with 200-μl aliquot of 1 N NaOH and incubated for 30 minutes at 60° C. After neutralization with 200 μl of 1 N HCl, radioactivity was determined from a 250-μl of the cell lysate by scintillation counting. Uptake activity was expressed per amount of total cellular protein as determined by the method of Bradford (Bradford, M. M. 1976. Anal. Biochem. 72: 248-254). Non-specific binding of radioactive substrate was similarly determined in parallel for both cell lines after a 15 second-incubation with 400 μl of ice-cold uptake solution.
Kinetic analysis of polyamine transport was performed by determining uptake activity in the presence of a 3 μM [^3H]putrescine or 1 μM [^3H]spermidine plus increasing concentrations of nonradioactive substrate. K[…] Ki and Vmax values were then estimated by Lineweaver-Burke analysis. For competitive inhibitors, Ki values were also estimated by measuring uptake activity in the presence of logarithmically increasing concentrations of antagonist, and using the Cheng-Prusoff equation (Cheng, Y.-C. and Prusoff, W. H. 1973. Biochem. Pharmacol. 22: 3099-3108) by iterative curve fitting for a sigmoidal curve. For mixed competitive/noncompetitive inhibition, two methods were used to calculate kinetic constants. First, the equation [drawing 2] where v, s, and i are the transport velocity, substrate concentration and inhibitor concentration respectively, was used to calculate the inhibition constants for inhibitor/carrier complex formation (Ki) and carrier/inhibitor/substrate complex formation (Ki′) (Dixon, M. and Webb, E. C. 1976. Enzymes, 3rd Ed., Academic Press, San Diego, Calif.). […]
In order to evaluate the effectiveness of dimeric triamines as polyamine transport inhibitors, we synthesized N,N′-bis(3-aminopropyl),N,N′-bis(4-aminobutyl)cystamine or BABAC (structure 1, FIG. 25; FIG. 31), and its thiol form N-(3-aminopropyl),N-(4-aminobutyl)cysteamine or AAC (FIG. 31) according to Scheme 4 described above (FIG. 30), using spermidine as a precursor polyamine. The ability of BABAC and AAC to inhibit the intracellular uptake of radio-labeled putrescine and spermidine in the ZR-75-1 human breast cancer cell line was then determined according to standard published procedures (Lessard, et al. and Poulin, et al.) Briefly, ZR-75-1 cells were grown for four days in twenty-four well plates in RPMI 1640 medium supplemented with 10% fetal bovine serum.

A short description of data set [1]: Stability in biological media (cell-free, HPLC). The conditions noted are these: IMEM, 48 hours, 37° C. In kind it is physicochemical. As for the experimental part: DESC stability was tested by incubating the compound dissolved (at 50 μM) in PBS or in IMEM medium containing 10% (v/v) fetal bovine serum plus or minus 1 mM aminoguanidine in a humid 5% CO2 atmosphere at 37° C. and in the absence of cells. At indicated times, trichloroacetic acid was added to aliquots of this solution to a final concentration 10% (w/v) and the samples directly analyzed by HPLC as above.
The inability of DESC to block the biological effect of exogenous spermidine, even when present at large molar excesses, might have been caused by its degradation in growth media. To assess this hypothesis, DESC solutions (20 μM) made in PBS or in sterile IMEM medium enriched with 10% (v/v) FBS were incubated for 20 minutes or 48 hours under cell-free conditions at 37° C. in a humid 5% CO2 atmosphere, and the polyamine analog was then analyzed by ion-pair reversed-phase HPLC. After 48 hours, degradation of DESC to two new amine-containing derivatives occurred in IMEM (FIG. 9A, B) but not in PBS (FIG. 9C), as evidenced by the appearance of a major (compound 1) and minor (compound 2) peaks of o-phthaldialdehyde-reactive material eluting earlier than DESC. […] After 48 hours, i.e. the interval at which freshly made DESC-containing media were added to cell cultures in growth experiments, 40% of the DESC originally present had been decomposed by IMEM. […]

For data set [2] the following is noted: MESC: amino group neighboring the amide linkage; cited from earlier work.

Regarding `NCCCNCCCC(NCCCN)C(=O)NCCSSCCNC(=O)C(CCCNCCCN)NCCCN` (stereo not shown) [DESC, 2,2′-dithiobis(N-ethyl-spermine-5-carboxamide)], the Ki came to 5.6 µM in the data set on polyamine transporter (FIG. 32, 20 μM and 3 μM substrate, respectively, read-out: Apparent Ki, spermidine uptake); 2.7 ± 1.1 µM in the data set with polyamine transporter (this work, read-out: Ki, spermidine transport). The “DESC originally present decomposed” value in data set [1] worked out at 40%.

Turning to `NCCCNCCCC(NCCCN)C(=O)NCCS` (stereo not shown) [MESC, N-(2-mercaptoethyl)spermine-5-carboxamide], in data set [2], the “pKa of secondary amino group of the spermine head” value was 5.5.
